Measured values reported in patent US6919344B2, “N-substituted indole-3-glyoxylamides having anti-asthmatic, antiallergic and immunosuppressant/immuno-modulating action” (ASTA MEDICA, Aktiengesellschaft, priority 1996, dated 2005).

How the values were obtained:
[1] = tested on: "late phase" eosinophilia in the BAL; assay: Inhibition of the "late phase" eosinophilia in the BAL 24 hours after allergen challenge in guinea pigs; type: in vivo
Experimental: Inhibition of the “Late Phase” eosinophilia in the BAL 24 Hours after Allergen Challenge in Guinea Pigs
Male guinea pigs (200-250 g, Dunkin Hartley Shoe) were actively sensitized subcutaneously with ovalbumin (10 μg of ovalbumin+1 mg of Al(OH)3) and boosted 2 weeks later. One week after boosting with ovalbumin, the animals were exposed to an inhalation challenge with ovalbumin (0.5% strength solution) for 20-30 seconds. 24 hours later, the animals were killed by means of an overdose of urethane, exsanguinated and a bronchoalveolar lavage (BAL) was carried out using 2×5 ml of 0.9% strength physiological saline solution.
The lavage fluid was collected and centrifuged at 400 g for 10 minutes, and the pellets were suspended in 1 ml of 0.9% strength physiological saline solution. The eosinophils were counted microscopically in a Neubauer chamber after staining by means of Becton Dickinson test kit No. 5877. This test kit contains Phloxin B as a selective stain for eosinophils. The eosinophils in the BAL was [sic] counted here for each animal and expressed as eosinophils (millions/animal). For each group the mean value and standard deviation were determined. The percentage inhibition of eosinophilia for the group treated with test substance was calculated according to the following formula: (A−B)−(B−C)/(A−C)×100=% inhibition in this formula A eosinophils correspond to the untreated challenge group, B eosinophils to the treated group and C eosinophils to the unchallenged control group.
The animals were treated with a histamine H1 antagonist (azelastine; 0.01 mg/kg p.o.) 2 hours before allergen challenge to avoid death. The administration of the test substances or of the vehicle was carried out 4 hours after allergen challenge.

[2] = tested on: CD3-induced IL-2 production; assay: Inhibition of CD3-induced IL-2 production; type: cell-based
recombinant human Cyp B = recombinant human Cyp B (Homo sapiens, UniProt P23284); assay: Peptidylprolyl isomerase (PPIase) activity inhibition assay; type: biochemical; conditions: Cyp B incubated with 1 μM substance for 15 min, 10° C.
Experimental: Assays for the Determination of Peptidylprolyl Isomerase (PPIase) Activity and Inhibition
The PPIase activity of the cyclophilins was measured enzymatically according to Fischer et al. (1984). After isomerization of the substrate by the peptidyl prolyl isomerase, this is accessible to chymotrypsin, which cleaves the chromophore p-nitroaniline. For the determination of inhibition of the PPIase activity by substance, recombinant human Cyp B was used. The interaction of Cyp B with a potential inhibitor was carried out as follows:
A certain concentration of purified Cyp B was incubated with 1 μM substance for 15 min. The PPIase reaction was started by addition of the substrate solution to the reaction mixture which contains HEPES buffer, chymotrypsin and either test or control samples. Under these conditions, first-order kinetics were obtained with a constant Kobserved=K0+Kenz, where K0 is the spontaneous isomerization and Kenz is the rate of isomerization of the PPIase activity. The extinction values which correspond to the amount of the chromophore cleaved were measured using a Beckman DU 70 spectrophotometer at a constant reaction temperature of 10° C.
The observed residual activity in the presence of various substances was compared with the cyclophilins only treated with solvent. The results were given in % residual activity. Cyclosporin A (CsA) was used as the reference compound. […]

lymphoproliferation = assay: Inhibition of lymphoproliferation (colorimetric MTT assay); type: cell-based
From the text: Colorimetric Assay (Based on the MTT Test) for the Non-Radioactive Quantification of Cell Proliferation and Survival Ability
MTT is used for the quantitative determination of cell proliferation and activation, for example, in the reaction on growth factors and cytokines such as IL-2 and IL-4 and also for the quantification of the antiproliferative or toxic effects.
The assay is based on the cleavage of yellow tetrazolium salt MTT to give purple-red formazan crystals by metabolically active cells.
The cells, cultured in a 96-hole tissue culture plate, are incubated for about 4 h with yellow MTT solution. After this incubation time, purple-red formazan salt crystals are formed. These salt crystals are insoluble in aqueous solutions, but can be dissolved by addition of solubilizer and by incubation of the plates overnight.
The dissolved formazan product is quantified spectrophotometrically using an ELISA reader. An increase in the number of living cells results in an increase in the total metabolic activity in the sample. This increase correlates directly with the amount of the purple-red formazan crystals formed, which are [sic] measured by the absorption.

recombinant human Cyp B, sequence (P23284 34-216): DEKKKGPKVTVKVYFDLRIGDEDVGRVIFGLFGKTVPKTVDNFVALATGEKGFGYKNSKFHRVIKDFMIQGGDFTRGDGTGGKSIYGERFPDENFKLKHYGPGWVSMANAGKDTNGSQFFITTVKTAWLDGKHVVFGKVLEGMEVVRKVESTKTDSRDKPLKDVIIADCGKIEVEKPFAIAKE

With `O=C(Nc1ccncc1)C(=O)c1cn(Cc2ccc(F)cc2)c2ccccc12` [Ex. 1, N-(Pyridin-4-yl)-[1-(4-fluorobenzyl)indol-3-yl]glyoxylamide] the “% Inhibition of the "late phase" eosinophilia 24 h after allergen challenge” value (from here on “% Inhibition”) ([1]; 5 mg/kg i.p. + 4 h after allergen challenge) was 27.8%, the “% Inhibition” value ([1]; 10 mg/kg i.p. + 4 h after allergen challenge) was 55.4% and the “% Inhibition” value ([1]; 30 mg/kg p.o. + 4 h after allergen challenge) was 56.1%. It also gave an inhibition at 0.1 µM ([2]; Conc. 0.1 μM) of 34%, an inhibition at 1 µM ([2]; Conc. 1 μM) of 72% and an inhibition at 10 µM ([2]; Conc. 10 μM) of 95%. The “Inhibition of PPIase activity” value (recombinant human Cyp B) was 80-100%, the inhibition at 0.1 µM (lymphoproliferation; Conc. 0.1 μM) was 18% and the inhibition at 1 µM (lymphoproliferation; Conc. 1 μM) was 39%. For the same compound, the inhibition at 10 µM (lymphoproliferation; Conc. 10 μM) was 61%.
